Common to all, as to type: biochemical
The target in one experiment is T1, activated IGF-1R (Homo sapiens, UniProt P08069).
T1 construct: purchased Millipore 14-802
Kind of experiment: In vitro IGF-1R enzymatic assay (ADP-Glo). To be noted: ATP 100 μM. As for the experimental part: Inhibition of IGF-1R and IR kinases by compounds described herein were tested. The IC50 values were measured in vitro using an ADP-Glo kinase assay Kit (Promega). For the IGF-1R assay, active recombinant IGF-1R (Millipore #14-802) was used at 1 ng/reaction, the substrate IGF-1R tide (Millipore #12-527) was used at 125 μM and ATP was used at 100 μM. For the IR assay, active recombinant IR (Millipore #14-803) was used at 1 ng/reaction, the substrate Axl tide (Millipore #12-516) was used at 125 μM and ATP at 50 μM. Kinase reactions in both assays were conducted at 30° C. for 20 min with increasing concentrations of the test compounds.
The assay results as the percent inhibition of binding are presented in Tables B2 and B3 for IGF-1R and IR respectively.
For orientation: In ADP-Glo the light output rises with the ADP produced.

Another experiment addresses T2, FLT3 (ITD) (Homo sapiens, UniProt P36888).
T2 sequence (P36888 1-993): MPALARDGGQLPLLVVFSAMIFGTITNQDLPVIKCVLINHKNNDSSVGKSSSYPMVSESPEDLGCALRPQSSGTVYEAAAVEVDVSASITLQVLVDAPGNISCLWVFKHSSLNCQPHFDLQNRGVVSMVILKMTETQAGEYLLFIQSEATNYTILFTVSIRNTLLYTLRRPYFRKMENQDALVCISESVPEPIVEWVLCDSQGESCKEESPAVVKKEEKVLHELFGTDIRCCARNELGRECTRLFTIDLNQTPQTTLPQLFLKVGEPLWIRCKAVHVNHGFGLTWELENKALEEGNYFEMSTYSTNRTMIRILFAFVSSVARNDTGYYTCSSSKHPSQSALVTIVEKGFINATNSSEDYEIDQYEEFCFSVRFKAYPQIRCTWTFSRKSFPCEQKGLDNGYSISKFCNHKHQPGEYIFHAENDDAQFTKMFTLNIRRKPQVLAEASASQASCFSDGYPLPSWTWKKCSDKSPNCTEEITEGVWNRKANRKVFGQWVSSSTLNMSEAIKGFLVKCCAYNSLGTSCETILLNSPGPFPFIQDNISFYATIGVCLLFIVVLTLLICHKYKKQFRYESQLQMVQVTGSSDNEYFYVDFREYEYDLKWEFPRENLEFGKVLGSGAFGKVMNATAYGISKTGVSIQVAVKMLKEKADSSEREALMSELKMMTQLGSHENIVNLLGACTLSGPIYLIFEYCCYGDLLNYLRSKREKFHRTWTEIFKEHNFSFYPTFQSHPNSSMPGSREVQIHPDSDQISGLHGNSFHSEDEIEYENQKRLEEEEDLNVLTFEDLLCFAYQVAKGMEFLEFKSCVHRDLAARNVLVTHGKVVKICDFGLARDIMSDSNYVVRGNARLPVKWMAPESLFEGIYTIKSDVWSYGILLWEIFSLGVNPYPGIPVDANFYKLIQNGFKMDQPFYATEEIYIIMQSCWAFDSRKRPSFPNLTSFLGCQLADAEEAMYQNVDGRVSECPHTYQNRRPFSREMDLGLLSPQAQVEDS
Kind of experiment: HotSpot kinase assay against FLT3 (ITD). To be noted: HotSpot 33P assay, ATP 10 μM. The method, then:
Kinase assays were performed using test compounds against a panel of FLT3 kinases: FLT3; FLT3 (D835Y); and FLT3 (ITD). Compounds were prepared as 10 mM stock solutions in DMSO prior to use in the assay. Each compound was tested at 10 concentrations with three-fold serial dilution starting at 1 μM against the three kinases. The control compound, staurosporine, was tested at 10 concentrations with four-fold serial dilution starting at 20 μM. IC50 values and curve fits were obtained using Prism (GraphPad Software). The screening was performed using the “HotSpot” assay platform. The assay measures the conversion of a peptide substrate to ^33P-labelled phosphorylated product. Briefly, specific kinase/substrate pairs along with required cofactors were prepared in reaction buffer. Specifically, the substrate was prepared in reaction buffer (20 mM Hepes, pH 7.5; 10 mM MgCl2; 1 mM EGTA; 0.02% Brij35; 0.02 mg/mL BSA; 0.1 mM Na3VO4; 2 mM DTT; 1% DMSO), followed by delivery of any required cofactor to the resulting substrate solution. The corresponding kinase was delivered into the substrate solution and the reaction mixture was mixed gently. Compound was delivered into the reaction mixture, followed 15-20 min later by addition of a mixture of ATP (Sigma, St. Louis Mo.) and ^33P ATP (specific activity 0.01 μCi/μL final; Perkin Elmer, Waltham, Mass.) to a final concentration of 10 μM to initiate the reaction. Reactions were carried out at RT for 120 min, followed by spotting of the reactions onto P81 ion exchange filter paper (Whatman #3698-915; Whatman Inc., Piscataway, N.J.). Unbound phosphate was removed by extensive washing of filters in 0.75% phosphoric acid. […] The percent of enzyme inhibition was calculated based on the percent of remaining kinase activity. IC50 values were determined.

The target of another experiment is ABL1 (Homo sapiens, UniProt P00519). Put plainly: HotSpot kinase assay against ABL1. To be noted: HotSpot 33P assay, ATP 10 μM-30 μM. As for the experimental part:
The screening was performed using the “HotSpot” assay platform. The assay measures the conversion of a peptide substrate to ^33P-labelled phosphorylated product. Briefly, specific kinase/substrate pairs along with required cofactors were prepared in reaction buffer. Specifically, the substrate was prepared in reaction buffer (20 mM Hepes, pH 7.5; 10 mM MgCl2; 1 mM EGTA; 0.02% Brij35; 0.02 mg/mL BSA; 0.1 mM Na3VO4; 2 mM DTT; 1% DMSO), followed by delivery of any required cofactor to the resulting substrate solution. The corresponding kinase was delivered into the substrate solution and the reaction mixture was mixed gently. Compound was delivered into the reaction mixture, followed 15-20 minutes later by addition of a mixture of ATP (Sigma, St. Louis Mo.) and ^33P ATP (specific activity 0.01 μCi/μL final; Perkin Elmer, Waltham, Mass.) to a final concentration of 10 μM-30 μM to initiate the reaction. Reactions were carried out at RT for 120 min, followed by spotting of the reactions onto P81 ion exchange filter paper (Whatman #3698-915; Whatman Inc., Piscataway, N.J.). Unbound phosphate was removed by extensive washing of filters in 0.75% phosphoric acid. […] The percent of enzyme inhibition was calculated based on the percent of remaining kinase activity. IC50 values and curve fits were obtained using Prism (GraphPad Software).

What is called IC50 is the midpoint of a concentration-inhibition curve. One may read the inhibition as the change of the read-out against control, counted positive when it falls.

T1 sequence (P08069 31-1367): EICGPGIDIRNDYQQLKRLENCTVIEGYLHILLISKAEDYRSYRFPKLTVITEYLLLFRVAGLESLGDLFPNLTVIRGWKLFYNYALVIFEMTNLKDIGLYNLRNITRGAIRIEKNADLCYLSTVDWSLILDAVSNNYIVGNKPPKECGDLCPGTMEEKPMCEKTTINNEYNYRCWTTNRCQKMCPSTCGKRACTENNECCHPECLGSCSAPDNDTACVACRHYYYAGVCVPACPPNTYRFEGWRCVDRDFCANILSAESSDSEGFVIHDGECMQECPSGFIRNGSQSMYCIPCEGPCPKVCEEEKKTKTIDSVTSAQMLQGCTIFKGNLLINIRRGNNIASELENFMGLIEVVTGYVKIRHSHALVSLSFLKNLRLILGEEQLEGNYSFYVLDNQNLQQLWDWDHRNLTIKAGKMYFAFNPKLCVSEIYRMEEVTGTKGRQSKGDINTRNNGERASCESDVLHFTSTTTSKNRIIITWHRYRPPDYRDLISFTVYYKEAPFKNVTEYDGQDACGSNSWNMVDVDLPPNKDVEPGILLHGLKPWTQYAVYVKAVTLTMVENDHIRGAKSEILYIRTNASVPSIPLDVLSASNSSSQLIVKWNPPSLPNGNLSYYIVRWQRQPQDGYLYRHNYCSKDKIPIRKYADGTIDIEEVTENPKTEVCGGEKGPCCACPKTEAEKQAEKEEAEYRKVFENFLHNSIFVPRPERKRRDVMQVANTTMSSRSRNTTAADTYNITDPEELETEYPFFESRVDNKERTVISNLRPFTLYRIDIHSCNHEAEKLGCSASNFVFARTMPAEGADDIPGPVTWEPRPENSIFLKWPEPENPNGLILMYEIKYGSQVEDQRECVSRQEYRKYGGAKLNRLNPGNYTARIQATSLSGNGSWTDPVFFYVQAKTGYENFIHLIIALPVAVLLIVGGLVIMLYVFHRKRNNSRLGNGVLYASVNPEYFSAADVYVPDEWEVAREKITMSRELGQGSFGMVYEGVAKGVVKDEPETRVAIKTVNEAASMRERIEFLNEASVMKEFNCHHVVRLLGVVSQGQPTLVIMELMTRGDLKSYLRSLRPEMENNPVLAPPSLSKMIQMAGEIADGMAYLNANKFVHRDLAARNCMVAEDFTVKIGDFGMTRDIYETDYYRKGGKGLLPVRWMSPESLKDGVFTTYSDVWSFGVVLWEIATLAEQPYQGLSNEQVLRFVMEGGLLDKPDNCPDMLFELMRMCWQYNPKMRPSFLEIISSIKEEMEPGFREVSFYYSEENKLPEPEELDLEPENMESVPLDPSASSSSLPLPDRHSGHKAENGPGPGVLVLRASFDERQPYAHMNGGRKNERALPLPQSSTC
Sequence of ABL1 (P00519 whole entry): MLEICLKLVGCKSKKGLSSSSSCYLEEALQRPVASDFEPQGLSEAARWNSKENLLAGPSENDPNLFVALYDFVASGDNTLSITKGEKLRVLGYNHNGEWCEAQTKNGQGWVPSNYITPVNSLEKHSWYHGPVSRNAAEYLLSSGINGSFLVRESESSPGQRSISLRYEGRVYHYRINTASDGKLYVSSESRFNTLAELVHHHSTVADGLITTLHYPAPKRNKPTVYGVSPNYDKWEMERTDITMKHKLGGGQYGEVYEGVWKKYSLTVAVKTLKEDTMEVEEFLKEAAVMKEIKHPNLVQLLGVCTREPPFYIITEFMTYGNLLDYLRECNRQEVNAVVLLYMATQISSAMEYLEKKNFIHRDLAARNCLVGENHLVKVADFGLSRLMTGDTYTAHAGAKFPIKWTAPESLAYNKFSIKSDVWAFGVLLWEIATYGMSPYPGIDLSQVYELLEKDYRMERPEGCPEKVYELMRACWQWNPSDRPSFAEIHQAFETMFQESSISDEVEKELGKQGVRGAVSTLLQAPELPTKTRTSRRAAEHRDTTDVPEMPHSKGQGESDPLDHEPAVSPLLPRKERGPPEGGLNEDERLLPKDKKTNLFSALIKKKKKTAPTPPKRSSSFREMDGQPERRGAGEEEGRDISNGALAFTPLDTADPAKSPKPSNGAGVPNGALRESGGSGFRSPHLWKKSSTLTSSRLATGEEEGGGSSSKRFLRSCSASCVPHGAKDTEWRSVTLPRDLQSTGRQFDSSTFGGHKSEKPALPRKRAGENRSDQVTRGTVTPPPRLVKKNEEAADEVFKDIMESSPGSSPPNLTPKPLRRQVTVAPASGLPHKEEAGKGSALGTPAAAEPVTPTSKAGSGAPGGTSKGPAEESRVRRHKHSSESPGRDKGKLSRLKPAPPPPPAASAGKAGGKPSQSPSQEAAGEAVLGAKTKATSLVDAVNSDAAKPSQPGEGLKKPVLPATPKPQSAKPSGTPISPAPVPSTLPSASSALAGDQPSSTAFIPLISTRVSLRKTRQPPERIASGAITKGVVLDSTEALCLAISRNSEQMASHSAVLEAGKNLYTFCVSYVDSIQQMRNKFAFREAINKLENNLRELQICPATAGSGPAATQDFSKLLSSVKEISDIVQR

In the case of `CCN(C(=O)[C@@H]1CCCN1c1nc2c(c(Nc3cc(C(C)C)[nH]n3)n1)CCC2)c1nccs1` [145b, (S)—N-ethyl-1-(4-((5-isopropyl-1H-pyrazol-3-yl)amino)-6,7-dihydro-5H-cyclopenta[d]pyrimidin-2-yl)-N-(thiazol-2-yl)pyrrolidine-2-carboxamide], the IC50 against activated IGF-1R was 470 nM; against FLT3 (ITD), 435 nM.

On to `CC(C)(C)c1cc(Nc2nc(N3CCC[C@H]3C(=O)N3CCC(F)(F)CC3)nc3c2CCC3)n[nH]1` [142b, (S)-(1-(4-((5-(tert-butyl)-1H-pyrazol-3-yl)amino)-6,7-dihydro-5H-cyclopenta[d]pyrimidin-2-yl)pyrrolidin-2-yl)(4,4-difluoropiperidin-1-yl)methanone], for which the IC50 against activated IGF-1R is over 10000 nM; on FLT3 (ITD), over 1000 nM; on ABL1, over 1000 nM.

For the compound `CCN(C(=O)[C@@H]1CCCN1c1nc2c(c(Nc3cc(C(C)(C)C)[nH]n3)n1)CCC2)c1nccs1` [144b, (S)-1-(4-((5-(tert-butyl)-1 H-pyrazol-3-yl)amino)-6,7-dihydro-5H-cyclopenta[d]pyrimidin-2-yl)-N-ethyl-N-(thiazol-2-yl)pyrrolidine-2-carboxamide], the IC50 was 10300 nM on activated IGF-1R, over 1000 nM against FLT3 (ITD) and over 1000 nM against ABL1.

As to `CCC(=O)N1CCN(C(=O)[C@@H]2CCCN2c2nc3c(c(Nc4cc(C5CCCC5)[nH]n4)n2)CCC3)CC1` [143b, (S)-1-(4-((4-((5-cyclopentyl-1H-pyrazol-3-yl)amino)-6,7-dihydro-5H-cyclopenta[d]pyrimidin-2-yl)prolyl)piperazin-1-yl)propan-1-one], the IC50 is over 30000 nM against activated IGF-1R, 310 nM on FLT3 (ITD) and over 1000 nM against ABL1.

In the case of `CC(C)c1cc(Nc2nc(N3CCC[C@H]3C(=O)N(C)c3nccs3)nc3c2CCC3)n[nH]1` [68b, (S)-1-(4-((5-isopropyl-1H-pyrazol-3-yl)amino)-6,7-dihydro-5H-cyclopenta[d]pyrimidin-2-yl)-N-methyl-N-(thiazol-2-yl)pyrrolidine-2-carboxamide], the IC50 at activated IGF-1R amounted to 243 nM; on FLT3 (ITD), 167 nM; on ABL1, 316 nM. 1 µM produced 84% inhibition against activated IGF-1R (compound 1 μM).

As for `CC(C)(C)c1cc(Nc2nc(N3CCC[C@@H]3C(=O)N3CCC(F)(F)CC3)nc3c2CCC3)n[nH]1` [142a, (R)-(1-(4-((5-(tert-butyl)-1H-pyrazol-3-yl)amino)-6,7-dihydro-5H-cyclopenta[d]pyrimidin-2-yl)pyrrolidin-2-yl)(4,4-difluoropiperidin-1-yl)methanone], the results for the IC50 against activated IGF-1R, on FLT3 (ITD) and on ABL1 were 4850 nM, over 1000 nM and over 1000 nM, respectively.

In the case of `CC1(C(=O)N2CCC(F)(F)CC2)CCCN1c1nc2c(c(Nc3cc(C4CCCC4)[nH]n3)n1)CCC2` (racemic) [compound 146, (1-(4-((5-cyclopentyl-1H-pyrazol-3-yl)amino)-6,7-dihydro-5H-cyclopenta[d]pyrimidin-2-yl)-2-methylpyrrolidin-2-yl)(4,4-difluoropiperidin-1-yl)methanone], the IC50 against activated IGF-1R is over 30000 nM; against FLT3 (ITD), 1480 nM.

In the case of `CCC(=O)N1CCN(C(=O)[C@H]2CCCN2c2nc3c(c(Nc4cc(C5CCCC5)[nH]n4)n2)CCC3)CC1` [143a, 1-(4-((4-((5-cyclopentyl-1H-pyrazol-3-yl)amino)-6,7-dihydro-5H-cyclopenta[d]pyrimidin-2-yl)-D-prolyl)piperazin-1-yl)propan-1-one], the IC50 at activated IGF-1R was 740 nM; at FLT3 (ITD), 13.7 nM; at ABL1, over 1000 nM.

For the origin of these results see US20170137410A1, “FUSED CYCLOALKYL-PYRIMIDINE COMPOUNDS AND USES THEREOF” (Medivation Technologies, Inc., priority 2014, published 2017).
